We go through four compounds from ChEMBL document CHEMBL4433245, “Discovery of GlyT2 Inhibitors Using Structure-Based Pharmacophore Screening and Selectivity Studies by FEP+ Calculations” (ACS Med Chem Lett, 2019).

Test [1] deals with Sodium- and chloride-dependent glycine transporter 1 (Mus musculus) (UniProt P28571). The test is described as follows: Inhibition of mouse GlyT1 expressed in porcine aorta […] cells assessed as reduction in [3H]-Glycine uptake incubated for 10 mins at pH 7.4 by scintillation spectroscopy.
Chain of Sodium- and chloride-dependent glycine transporter 1 (Mus musculus) (P28571 whole entry, looked up): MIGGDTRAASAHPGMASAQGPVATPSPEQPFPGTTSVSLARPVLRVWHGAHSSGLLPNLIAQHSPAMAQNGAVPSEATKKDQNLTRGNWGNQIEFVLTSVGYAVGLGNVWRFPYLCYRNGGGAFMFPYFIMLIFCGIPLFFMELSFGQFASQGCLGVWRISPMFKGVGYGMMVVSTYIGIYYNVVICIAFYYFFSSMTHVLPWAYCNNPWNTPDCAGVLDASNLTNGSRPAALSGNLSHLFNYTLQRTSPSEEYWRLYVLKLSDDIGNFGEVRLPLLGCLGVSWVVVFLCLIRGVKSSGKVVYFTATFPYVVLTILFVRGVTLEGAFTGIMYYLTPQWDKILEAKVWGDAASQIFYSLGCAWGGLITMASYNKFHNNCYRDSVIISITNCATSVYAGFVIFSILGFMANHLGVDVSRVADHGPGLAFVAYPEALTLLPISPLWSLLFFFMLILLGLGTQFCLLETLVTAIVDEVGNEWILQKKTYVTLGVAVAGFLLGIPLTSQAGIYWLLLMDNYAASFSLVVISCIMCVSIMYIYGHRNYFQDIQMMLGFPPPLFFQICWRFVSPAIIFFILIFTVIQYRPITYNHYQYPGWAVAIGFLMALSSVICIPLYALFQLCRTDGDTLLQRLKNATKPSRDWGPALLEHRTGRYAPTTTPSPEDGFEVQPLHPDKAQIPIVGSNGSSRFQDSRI
For test [2] the target is unchanged. Put plainly: Inhibition of mouse GlyT1 expressed in porcine aorta […] cells assessed as reduction in [3H]-Glycine uptake incubated for 10 mins at pH 7.4 by scintillation spectroscopy relative to untreated control.

pIC50: −log10 of the molar value.

As usually defined, the pIC50 is the negative decadic logarithm of the IC50, by convention in mol/L. With `O=C(O)CCCCSc1ncnc2[nH]c(=O)[nH]c12`, in test [1], the pIC50 was less than 3.70.
Same read-out and setting: next, `O=c1[nH]c2c(c(=O)[nH]1)CCN(Cc1ccccc1)C2`: less than 3.70.
On to `O=C(O)CCSc1[nH]c(=O)nc2[nH]c(=O)[nH]c12`, for which, in test [1], the pIC50 was less than 3.70.
By inhibition is commonly meant the percentage by which the read-out fell short of the control. For the compound `CN(CC[C@@H](Oc1ccc(-c2ccccc2)cc1)c1ccc(F)cc1)CC(=O)O`, the inhibition in test [2] was 80%.
